According to US8476255B2, “Histone deacetylase inhibitors” (Orchid Chemicals & Pharmaceuticals Limited, priority 2007, dated 2013):

Columns and labels:
[1] = system: NCIH460 (lung) cells; test: Anti-cancer screen (MTT), NCIH460; assay type: cell-based; details: Homo sapiens, NCI-H460, NCIH460, 48 hours, MTT; for GI50: read-out: Cell growth inhibition NCIH460 (Lung) GI50; for LC50: read-out: Cell growth inhibition NCIH460 (Lung) LC50; for IC (TGI): read-out: Cell growth inhibition NCIH460 (Lung) TGI
Summary of the method: (§1)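 Seeding at 5×10^4 cells/mL preceded 24 h culture, after which compounds diluted from DMSO stocks were added at final 0.01, 0.1, 1, 10 and 100 μM for 48 h. Viability was then read by MTT (3 h, 37 °C) at A570.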

[2] = system: NCIH460, HCT116 and U251 cells; test: Anti-cancer screen, mean GI50 over cell lines; assay type: cell-based; details: mean over cell lines; read-out: Cell growth inhibition Mean GI50
Summary of the method: as §1

[3] = system: HDAC (Mouse Liver Extract); test: HDAC inhibition assay using Boc-Lys(Ac)-AMC substrate; assay type: biochemical; details: mouse liver enzyme
Summary of the method: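 Boc-Lys(Ac)-AMC substrate incubated with mouse liver extract as HDAC source, 5 min preincubation then 30 min at 37° C. Trypsin stop solution added (37° C., 15-30 min) to release AMC, read at ex 360/em 460 nm; buffer-only and substrate-only wells as blanks.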

[4] = system: HCT 116 (colon) cells; test: Anti-cancer screen (MTT), HCT 116; assay type: cell-based; details: Homo sapiens, HCT-116, HCT116, 48 hours, MTT; for GI50: read-out: Cell growth inhibition HCT116 (Colon) GI50; for CC50: read-out: Cell growth inhibition HCT116 (Colon) LC50; for IC (TGI): read-out: Cell growth inhibition HCT116 (Colon) TGI
Summary of the method: as §1

[5] = system: U251 (glioma) cells; test: Anti-cancer screen (MTT), U251; assay type: cell-based; details: Homo sapiens, U-251, U251, 48 hours, MTT; for GI50: read-out: Cell growth inhibition U251 (Glioma) GI50; for LC50 (concentration giving 50% net cell kill relative to the time-zero cell count): read-out: Cell growth inhibition U251 (Glioma) LC50; for IC (TGI): read-out: Cell growth inhibition U251 (Glioma) TGI
Summary of the method: as §1

Row | SMILES | GI50 [1] [µM] | LC50 [1] [µM] | IC (TGI) [1] [µM] | GI50 [2] [µM] | HDAC inhibition % (1 μM) [3] [%] | HDAC inhibition % (10 μM) [3] [%] | IC50 [3] [µM] | GI50 [4] [µM] | CC50 [4] [µM] | IC (TGI) [4] [µM] | GI50 [5] [µM] | LC50 (concentration giving 50% net cell kill relative to the time-zero cell count) [5] [µM] | IC (TGI) [5] [µM]
1 | COC(=O)c1ccc(/C=C(/C(=O)NCc2ccc(C(=O)Nc3ccccc3N)cc2)c2cccc(Cl)c2)cc1 [Compound 33, N-(2-Aminophenyl)-4-((3-(4-carbmethoxyphenyl)-2-(3-chlorophenyl)acrylamido)methyl)benzamide] | 0.2 | 60 | 11 | 0.1 | 34.4 | 35.0 | 7.8 | 0.02 | 80 | 2 | 0.2 | 4.5 | 0.7
2 | Nc1ccccc1NC(=O)c1ccc(CNC(=O)/C(=C/c2ccccc2)c2ccccc2)cc1 [Compound 12, N-(2-Aminophenyl)-4-((3-phenyl-2-phenylacrylamido)methyl)benzamide] | 32 | 87 | 60 | 18.4 | 13.6 | 29.8 |  | 5.2 | 76.2 | 37 | 18 | 82 | 48.5
3 | CS(=O)(=O)c1ccc(/C=C(/C(=O)NCCCCCC(=O)Nc2ccccc2N)c2ccc(F)cc2)cc1 [Compound 97, N-(2-Aminophenyl)-6-(2-(4-fluorophenyl)-3-(4-methylsulfonyllphenyl)acrylamido)hexanamide] | 56 | > 100 | > 100 | 23.1 | 10.2 | 34.2 |  | 6.8 | > 100 | 85 | 6.5 | 87 | 44
4 | COc1cc(/C=C(/C(=O)NCc2ccc(C(=O)Nc3ccccc3N)cc2)c2ccc(F)cc2)ccc1F [Compound 20, N-(2-Aminophenyl)-4-((3-(4-fluoro-3-methoxyphenyl)-2-(4-fluorophenyl)acrylamido)methyl)benzamide] | 7.5 |  | 18 | 3.2 | 45.1 | 46.2 |  | 0.3 | 80 | 20 | 1.7 |  | 3.5
5 | Nc1ccccc1NC(=O)c1ccc(CNC(=O)/C(=C/c2ccc(F)cc2)c2ccccc2)cc1 [Compound 10, N-(2-Aminophenyl)-4-((3-(4-fluorophenyl)-2-(phenyl)acrylamido)methyl)benzamide] | 19.5 | 85 | 49 | 16.8 | 14.5 | 32.1 |  | 3.9 | 56 | 9 | 27 | 92 | 57
6 | COc1ccc(/C=C(/C(=O)NCc2ccc(/C=C/C(=O)NO)cc2)c2ccccc2F)cc1OC [Compound 78, (1E)-N-(4-(3-(Hydroxyamino)-3-oxoprop-1-enyl)benzyl)-2-(2-fluorophenyl)-3-(3,4-dimethoxyphenyl)acrylamide] | 2 | > 100 | > 100 | 2.3 | 87.6 | 91.3 |  | 4 | > 100 | 30 | 1 | > 100 | 8
7 | CSc1ccc(/C=C(/C(=O)NCc2ccc(C(=O)Nc3ccccc3N)cc2)c2ccsc2)cc1 [Compound 26, N-(2-Aminophenyl)-4-((3-(4-methylthiophenyl)-2-(thiophen-3-yl)acrylamido)methyl)benzamide] | 52 | > 100 | > 100 | 35.3 | 34.1 | 42.6 |  | 4 | > 100 | 15 | 50 | > 100 | 70
8 | Nc1ccccc1NC(=O)c1ccc(CNC(=O)/C(=C/c2ccc(F)c(F)c2)c2ccc(F)cc2)cc1 [Compound 1, N-(2-Aminophenyl)-4-((3-(3,4-difluorophenyl)-2-(4-fluorophenyl)acrylamido)methyl)benzamide] | 2.3 | 52 | 5.4 | 2.4 | 1.2 | 27.8 |  | 2.2 | 27 | 4.9 | 2.8 | 35 | 4.2
9 | COc1cc(/C=C(/C(=O)NCc2ccc(C(=O)Nc3ccccc3N)cc2)c2ccc(F)cc2)cc(OC)c1OC [Compound 8, N-(2-Aminophenyl)-4-((3-(3,4,5-trimethoxyphenyl)-2-(4-fluorophenyl)acrylamido)methyl)benzamide] | 89 | > 100 | > 100 | 60.2 | 21.4 | 26.4 |  | 24.5 | > 100 | 82.5 | 67 | > 100 | 84.5
10 | COc1cc(/C=C(/C(=O)NCCCCCC(=O)NO)c2ccc(F)cc2)ccc1F [Compound 91, 6-(2-(4-Fluorophenyl)-3-(4-fluoro-3-methoxyphenyl)acrylamido)-N-hydroxy hexanamide] | 46 | > 100 | > 100 | 22.3 | 80.8 | 97.3 |  | 19 | > 100 | > 100 | 2 | 92 | 30
11 | COC(=O)c1ccc(/C=C(/C(=O)NCc2ccc(C(=O)Nc3ccccc3N)cc2)c2ccc(F)c(F)c2)cc1 [Compound 38, N-(2-Aminophenyl)-4-((3-(4-carbmethoxyphenyl)-2-(3,4-difluorophenyl)acrylamido)methyl)benzamide] | 50 | > 100 | > 100 | 23.8 | 20.6 | 34.9 |  | 6.5 | > 100 | 80 | 15 | > 100 | 70
12 | COc1cc(/C=C(/C(=O)NCc2ccc(C(=O)NO)cc2)c2ccc(F)cc2)ccc1F [Compound 60, 4-((2-(4-Fluorophenyl)-3-(4-fluoro-3-methoxyphenyl)acrylamido)methyl)-N-hydroxybenzamide] | 25 | 80 | 50 | 17.3 | 66.6 | 95.0 |  | 10 | 81 | 50 | 17 | 99 | 38
13 | CSc1ccc(/C=C(/C(=O)NCc2ccc(C(=O)NO)cc2)c2ccc(F)cc2)cc1 [Compound 52, 4-((2-(4-Fluorophenyl)-3-(4-methylthiophenyl)acrylamido)methyl)-N-hydroxybenzamide] | 12 | 82 | 53 | 9.2 | 83.5 | 95.7 | 0.06 | 5.6 | 69 | 9.6 | 10 | 75 | 54
14 | O=C(CCCCCCNC(=O)/C(=C\c1ccccc1)c1ccccc1)NO [Compound 85, (2Z)-7-(2,3-Diphenylacrylamido)-N-hydroxy heptanamide] | 3.3 | 75 | 25 | 3.7 | 79.3 | 95.8 | 0.38 | 3.1 | > 100 | 23 | 4.8 | 80 | 27
